Source: PubChem BioAssay (NCI)
Where “and” joins values, the source holds several entries; their conditions need not be identical. Equal values may be shown once.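 Protocol summary: plate cells (96-well), add compound at 5 concentrations, incubate 48 h, interpolate endpoints linearly. At the GI50, growth is halved. At the TGI there is no net growth.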

What was measured:
Assay in all cases: DTP human tumour cell line panel, 48 h
[1] = system: NCI-H522 lung
[2] = system: MOLT-4 leukemia
[3] = system: ACHN renal
[4] = system: NCI-H460 lung
[5] = system: SF-295 CNS
[6] = system: HCT-116 colon
[7] = system: SF-268 CNS
[8] = system: OVCAR-8 ovarian
[9] = system: SR leukemia
[10] = system: MCF7 breast

CCC1(C(=O)OC)CCc2c(OC)ccc(OC)c2C1=O (stereo unspecified)
TGI [1]: > 100 µM
TGI [2]: > 100 µM
TGI [3]: > 100 µM
TGI [4]: > 100 µM
TGI [5]: > 100 µM
TGI [6]: > 100 µM
TGI [7]: > 100 µM
TGI [8]: > 100 µM

Cc1c(C(=O)/C=C/c2ccccc2Cl)[n+](=O)c2ccccc2n1[O-]
TGI [1]: 23.3 µM
TGI [2]: 42 µM
TGI [3]: 31.9 µM
TGI [4]: 24.4 µM
TGI [5]: 28 µM
TGI [9]: 51.5 µM
TGI [6]: 22.5 µM
TGI [8]: 26.1 µM

O=C(CC(=O)Nc1ccccc1O)Nc1ccccc1O
TGI [1]: 24.8 µM
TGI [2]: > 100 µM
TGI [3]: 22.4 µM
TGI [4]: 66.3 µM
TGI [5]: > 100 µM
TGI [6]: 27.5 µM
TGI [7]: 75.8 µM
TGI [8]: > 100 µM

CC(=O)Nc1ccccc1-c1cnc2ccccc2n1
TGI [1]: > 100 µM
TGI [2]: > 100 µM
TGI [3]: > 100 µM
TGI [4]: > 100 µM
TGI [5]: > 100 µM
TGI [9]: > 100 µM
TGI [6]: > 100 µM
TGI [7]: > 100 µM
TGI [8]: > 100 µM

Cc1ccc(C2(O)CC(c3ccc([N+](=O)[O-])o3)=NN2C(=O)COc2ccccc2Cl)cc1 (stereo unspecified)
TGI [1]: > 48.4 µM
TGI [2]: 96.1 µM
TGI [3]: 63.2 µM
TGI [4]: > 31.6 µM
TGI [5]: > 100 µM
TGI [9]: 23.1 µM
TGI [6]: > 87.4 µM
TGI [7]: > 76 µM
TGI [8]: > 100 µM

NCCCC1NC(=O)/C(=C(O)/C=C/C2CCC[C@@H]2CC2SCCS2)C1=O (stereo partly specified)
TGI [1]: 98.4 µM
TGI [2]: > 100 µM
TGI [3]: > 100 µM
TGI [4]: > 100 µM
TGI [5]: > 100 µM
TGI [9]: > 100 µM
TGI [6]: > 100 µM
TGI [7]: > 100 µM
TGI [8]: > 100 µM

Cc1ccc2c(Nc3cccc(Cl)c3F)ncc(NC(=O)c3csc4c(N)ncnc34)c2c1
GI50 [1]: > 100 µM
TGI [1]: > 100 µM
GI50 [2]: > 100 µM
TGI [2]: > 100 µM
GI50 [3]: > 100 µM
TGI [3]: > 100 µM
GI50 [4]: > 100 µM
TGI [4]: > 100 µM
GI50 [5]: > 100 µM
TGI [5]: > 100 µM
GI50 [6]: 0.0961 µM
TGI [6]: > 100 µM
GI50 [7]: > 100 µM
TGI [7]: > 100 µM
GI50 [8]: > 76.8 µM
TGI [8]: > 100 µM
GI50 [10]: > 100 µM
TGI [10]: > 100 µM

CCC[CH2][Ge]([CH2]CCC)([CH2]CCC)[O]C(=O)C(OC)c1ccccc1 (stereo unspecified)
GI50 [1]: 16.3 µM
TGI [1]: > 74.9 µM
GI50 [2]: 3.74 µM
TGI [2]: > 60.6 µM
GI50 [3]: 25.2 µM
TGI [3]: > 75.2 µM
GI50 [4]: 22.1 µM
TGI [4]: > 100 µM
GI50 [5]: 18.3 µM
TGI [5]: > 100 µM
TGI [9]: > 55.4 µM
GI50 [6]: 16.5 µM
TGI [6]: > 100 µM
GI50 [7]: 40.9 µM
TGI [7]: > 100 µM
GI50 [8]: 70.2 µM
TGI [8]: > 100 µM

Nc1ncnc2c(C3OC(CO)C(O)C3O)[nH]nc12 (stereo unspecified)
GI50 [1]: 0.239 µM
TGI [1]: 3.74 µM and 6.29 µM
GI50 [2]: 3.59 µM and 2.01 µM
TGI [2]: 38.3 µM
GI50 [3]: 0.0944 µM
GI50 [4]: 0.0434 µM
TGI [4]: 2.12 µM and 1.44 µM
GI50 [5]: 0.231 µM
TGI [5]: 1.1 µM and 10.1 µM
GI50 [9]: 0.0347 µM
TGI [6]: 3.16 µM
GI50 [7]: 0.204 µM and 0.452 µM
TGI [7]: 14 µM and 35.9 µM
GI50 [8]: 0.0375 µM and 0.0527 µM
TGI [8]: 0.624 µM and 0.713 µM
